SMILES strings stand for the structures.

The source of these data is patent US9963464B2, “Macrocyclic compounds” (Bayer Pharma Aktiengesellschaft, priority 2014, dated 2018).

One test concerns the target T1, CDK2/CycE (Homo sapiens, UniProt P24941).
T1 construct: GST; purchased ProQinase GmbH (Freiburg, Germany); host or cells: insect cells (Sf9)
The experiment in a line: CDK2/CycE high ATP kinase assay (TR-FRET, Method 2b). Particulars: 2 mM ATP. Format: biochemical. The protocol:
2b. CDK2/CycE High ATP Kinase Assay:
CDK2/CycE-inhibitory activity of compounds of the present invention at 2 mM adenosine-tri-phosphate (ATP) was quantified employing the CDK2/CycE TR-FRET (TR-FRET=Time Resolved Fluorescence Resonance Energy Transfer) assay as described in the following paragraphs.
Recombinant fusion proteins of GST and human CDK2 and of GST and human CycE, expressed in insect cells (Sf9) and purified by Glutathion-Sepharose affinity chromatography, were purchase from ProQinase GmbH (Freiburg, Germany). As substrate for the kinase reaction biotinylated peptide biotin-Ttds-YISPLKSPYKISEG (C-terminus in amid form) was used which can be purchased e.g. from the company JERINI peptide technologies (Berlin, Germany).
For the assay 50 nl of a 100 fold concentrated solution of the test compound in DMSO was pipetted into a black low volume 384 well microtiter plate (Greiner Bio-One, Frickenhausen, Germany), 2 μl of a solution of CDK2/CycE in aqueous assay buffer [50 mM Tris/HCl pH 8.0, 10 mM MgCl2, 1.0 mM dithiothreitol, 0.1 mM sodium ortho-vanadate, 0.01% (v/v) Nonidet-P40 (Sigma)] were added and the mixture was incubated for 15 min at 22° C. to allow pre-binding of the test compounds to the enzyme before the start of the kinase reaction. […] The concentration of CDK2/CycE was adjusted depending of the activity of the enzyme lot and was chosen appropriate to have the assay in the linear range, typical concentrations were in the range of 15 ng/ml. The reaction was stopped by the addition of 5 μl of a solution of TR-FRET detection reagents (0.2 μM streptavidine-XL665 [Cisbio Bioassays, Codolet, France] and 1 nM anti-RB(pSer807/pSer811)-antibody from BD Pharmingen [#558389] and 1.2 nM LANCE EU-W1024 labeled anti-mouse IgG antibody [Perkin-Elmer, product no. AD0077, as an alternative a Terbium-cryptate-labeled anti-mouse IgG antibody from Cisbio Bioassays can be used]) in an aqueous EDTA-solution (100 mM EDTA, 0.2% (w/v) bovine serum albumin in 100 mM HEPES pH 7.5).
The resulting mixture was incubated 1 h at 22° C. to allow the formation of complex between the phosphorylated biotinylated peptide and the detection reagents. Subsequently the amount of phosphorylated substrate was evaluated by measurement of the resonance energy transfer from the Eu-chelate to the streptavidine-XL. Therefore, the fluorescence emissions at 620 nm and 665 nm after excitation at 350 nm were measured in a TR-FRET reader, e.g. a Rubystar (BMG Labtechnologies, Offenburg, Germany) or a Viewlux (Perkin-Elmer). The ratio of the emissions at 665 nm and at […] was taken as the measure for the amount of phosphorylated substrate. The data were normalised (enzyme reaction without inhibitor=0% inhibition, all other assay components but no enzyme=100% inhibition).

The test system of another test is HeLa cells. The experiment in a line: Proliferation assay HeLa. The class given is cell-based, human. Particulars: Homo sapiens, HeLa, 96 h, 4 days, crystal violet; read-out: Inhibition of HeLa cell proliferation IC50. The protocol: (§1) Cultivated tumour cells (HeLa, human cervical tumour cells, ATCC CCL-2; NCI-H460, human non-small cell lung carcinoma cells, ATCC HTB-177; A2780, human ovarian carcinoma cells, ECACC #93112519; DU 145, hormone-independent human prostate carcinoma cells, ATCC HTB-81; HeLa-MaTu-ADR, multidrug-resistant human cervical carcinoma cells, EPO-GmbH Berlin; Caco-2, human colorectal carcinoma cells, ATCC HTB-37; B16F10, mouse melanoma cells, ATCC CRL-6475) were plated at a density of 5,000 cells/well (DU145, HeLa-MaTu-ADR), 3,000 cells/well (NCI-H460, HeLa), 2,500 cells/well (A2780), 1,500 cells/well (Caco-2), or 1,000 cells/well (B16F10) in a 96-well multititer plate in 200 μL of their respective growth medium supplemented 10% fetal calf serum. After 24 hours, the cells of one plate (zero-point plate) were stained with crystal violet (see below), while the medium of the other plates was replaced by fresh culture medium (200 μl), to which the test substances were added in various concentrations (0 μM, as well as in the range of 0.001-10 μM). The cells were incubated for 4 days in the presence of test substances. Cell proliferation was determined by staining the cells with crystal violet: the cells were fixed by adding 20 μl/measuring point of an 11% glutaric aldehyde solution for 15 minutes at room temperature. After three washing cycles of the fixed cells with water, the plates were dried at room temperature. The cells were stained by adding 100 μl/measuring point of a 0.1% crystal violet solution (pH 3.0). After three washing cycles of the stained cells with water, the plates were dried at room temperature. The dye was dissolved by adding 100 μl/measuring point of a 10% acetic acid solution. The extinction was determined by photometry at a wavelength of 595 nm. The change of cell number, in percent, was calculated by normalization of the measured values to the extinction values of the zero-point plate (=0%) and the extinction of the untreated (0 μm) cells (=100%). The IC50 values (inhibitory concentration at 50% of maximal effect) were determined by means of a 4 parameter fit. Non-adherent MOLM-13 human acute myeloid leukemia cells (DSMZ ACC 554) were seeded at a density of 5,000 cells/well in a 96-well multititer plate in 100 μL of growth medium supplemented 10% fetal calf serum. After 24 hours, cell viability of one plate (zero-point plate) was determined with the Cell Titre-Glo Luminescent Cell Viability Assay (Promega), while 50 μL of test compound containing medium was added to the wells of the other plates (final concentrations in the range of 0.001-1 μM and DMSO controls). Cell viability was assessed after 72-hour exposure with the Cell Titre-Glo Luminescent Cell Viability Assay (Promega). IC50 values (inhibitory concentration at 50% of maximal effect) were determined by means of a 4 parameter fit on measurement data which were normalized to vehicle (DMSO) treated cells (=100%) and measurement readings taken immediately before compound exposure (=0%).

The subject of a further test is DU145 cells. The experiment in a line: Proliferation assay DU145. The class given is cell-based, human. Particulars: Homo sapiens, DU-145, 96 h, 4 days, crystal violet; read-out: Inhibition of DU145 cell proliferation IC50. The procedure: as §1

Consider `CS(=N)(=O)Cc1cc2cc(c1)OCCCCOc1cc(F)ccc1-c1nc(ncc1F)N2` (racemic) [Example 1, (rac)-16,20-Difluoro-9-[(S-methylsulfonimidoyl)methyl]-2,3,4,5-tetrahydro-12H-13,17-(azeno)-11,7-(metheno)-1,6,12,14-benzodioxadiazacyclononadecine], for which the IC50 on CDK2/CycE was determined as 216 nM; in the test with HeLa cells it was 8 nM; in the test with DU145 cells, 10 nM.
For `C[S+]([O-])Cc1cc2nc(c1)OCCCOc1cc(F)ccc1-c1cc(ncc1F)N2` (racemic) [Example 4, (rac)-15,19-Difluoro-8-[(methylsulfinyl)methyl]-3,4-dihydro-2H,11H-10,6-(azeno)-12,16-(metheno)-1,5,11,13-benzodioxadiazacyclooctadecine] the same measures were 32.1 nM, 4 nM and 11 nM.
Turning to `CS(=N)(=O)Cc1cc2nc(c1)OCCCOc1cc(F)ccc1-c1cc(ncc1F)N2` (racemic) [Example 5, (rac)-15,19-Difluoro-8-[(S-methylsulfonimidoyl)methyl]-3,4-dihydro-2H,11H-10,6-(azeno)-12,16-(metheno)-1,5,11,13-benzodioxadiazacyclooctadecine], the values for the IC50 against CDK2/CycE, in the test with HeLa cells and in the test with DU145 cells were 20 nM, 2 nM and 4 nM, respectively.
The matching figures for `C[S+]([O-])Cc1cc2nc(c1)OCCOc1cc(F)ccc1-c1cc(ncc1F)N2` (racemic) [Example 10, (rac)-14,18-difluoro-7-[(methylsulfinyl)methyl]-2,3-dihydro-10H-9,5-(azeno)-11,15-(metheno)-1,4,10,12-benzodioxadiazacycloheptadecine]: 3500 nM, 195 nM and 324 nM.
For `CS(=N)(=O)Cc1cc2nc(c1)OCCOc1cc(F)ccc1-c1cc(ncc1F)N2` (racemic) [Example 11, (rac)-14,18-difluoro-7-[(S-methylsulfonimidoyl)methyl]-2,3-dihydro-10H-9,5-(azeno)-11,15-(metheno)-1,4,10,12-benzodioxadiazacycloheptadecine] the same measures were 2120 nM, 94 nM and 159 nM.
As for `C[S+]([O-])Cc1cc2nc(c1)OCCCCOc1cc(F)ccc1-c1cc(ncc1F)N2` (racemic) [Example 13, (rac)-16,20-difluoro-9-[(methylsulfinyl)methyl]-2,3,4,5-tetrahydro-12H-11,7-(azeno)-13,17-(metheno)-1,6,12,14-benzodioxadiazacyclononadecine], the IC50 worked out at 113 nM at CDK2/CycE and 30 nM in the test on DU145 cells.
For the compound `CS(=N)(=O)Cc1cc2nc(c1)OCCCCOc1cc(F)ccc1-c1cc(ncc1F)N2` (racemic) [Example 14, (rac)-16,20-difluoro-9-[(S-methylsulfonimidoyl)methyl]-2,3,4,5-tetrahydro-12H-11,7-(azeno)-13,17-(metheno)-1,6,12,14-benzodioxadiazacyclononadecine], the results for the IC50 on CDK2/CycE, in the test with HeLa cells and in the test on DU145 cells were 162 nM, 11 nM and 16 nM, respectively.
In the case of `CS(=N)(=O)Cc1cc2cc(c1)OCCCOc1cc(F)ccc1-c1nc(ncc1F)N2` (racemic) [Example 15, (rac)-15,19-difluoro-8-[(S-methylsulfonimidoyl)methyl]-3,4-dihydro-2H,11H-12,16-(azeno)-10,6-(metheno)-1,5,11,13-benzodioxadiazacyclooctadecine], the values for the IC50 against CDK2/CycE, in the test with HeLa cells and in the test on DU145 cells were 237 nM, 9 nM and 17 nM, respectively.
With `CS(=O)(Cc1cc2cc(c1)OCCCOc1cc(F)ccc1-c1nc(ncc1F)N2)=NC(=O)C(F)(F)F` (racemic) [Example 16, (rac)-N-[{[15,19-difluoro-3,4-dihydro-2H,11H-12,16-(azeno)-10,6-(metheno)-1,5,11,13-benzodioxadiazacyclooctadecin-8-yl]methyl}(methyl)oxido-λ^6-sulfanylidene]-2,2,2-trifluoroacetamide], the IC50 on CDK2/CycE was 670 nM; in the test with HeLa cells, 10 nM; in the test with DU145 cells, 17 nM.
In the case of `CCNC(=O)N=S(C)(=O)Cc1cc2nc(c1)OCCCOc1cc(F)ccc1-c1cc(ncc1F)N2` (racemic) [Example 17, (rac)-1-[{[15,19-difluoro-3,4-dihydro-2H,11H-10,6-(azeno)-12,16-(metheno)-1,5,11,13-benzodioxadiazacyclooctadecin-8-yl]methyl}(methyl)oxido-λ^6-sulfanylidene]-3-ethylurea], the values for the IC50 on CDK2/CycE, with HeLa cells and with DU145 cells were 35.9 nM, 11 nM and 36 nM, respectively.
For `CC(=O)N=S(C)(=O)Cc1cc2nc(c1)OCCCOc1cc(F)ccc1-c1cc(ncc1F)N2` (racemic) [Example 18, (rac)-N-[{[15,19-difluoro-3,4-dihydro-2H,11H-10,6-(azeno)-12,16-(metheno)-1,5,11,13-benzodioxadiazacyclooctadecin-8-yl]methyl}(methyl)oxido-λ^6-sulfanylidene]acetamide] the same measures were 63.2 nM, 10 nM and 26 nM.
Consider `CN=S(C)(=O)Cc1cc2nc(c1)OCCCOc1cc(F)ccc1-c1cc(ncc1F)N2` (racemic) [Example 19, (rac)-8-[(N,S-dimethylsulfonimidoyl)methyl]-15,19-difluoro-3,4-dihydro-2H,11H-10,6-(azeno)-12,16-(metheno)-1,5,11,13-benzodioxadiazacyclooctadecine], for which the IC50 against CDK2/CycE amounted to 159 nM; in the test with HeLa cells it was 31 nM; with DU145 cells, 78 nM.
Regarding `CSCc1cc2nc(c1)OCCOc1cc(F)ccc1-c1cc(ncc1F)N2` [Example 9, 14,18-Difluoro-7-[(methylsulfanyl)methyl]-2,3-dihydro-10H-9,5-(azeno)-11,15-(metheno)-1,4,10,12-benzodioxadiazacycloheptadecine], the IC50 against CDK2/CycE is greater than 20000 nM.
